Like-named read-outs stand apart in the source and are kept apart here.
Assays:
NLRP3 inflammasome [1] = experiment: NLRP3 inflammasome activation in human macrophages; assay type: cell-based; conditions: LPS 20 ng/ml 3 hrs, ATP 2 mM 30 min, metformin 0.5 mM 16 hrs
NLRP3 inflammasome [2] = experiment: NLRP3 inflammasome activation in LPS-primed mouse microglia; assay type: cell-based; conditions: different NLRP3 activators, metformin 0.5 mM 16 hrs
BMDM [3] = experiment: Mitochondrial function in BMDM (TMRM, MitoSOX, cellular ATP); assay type: cell-based, mouse
POLγ = POLγ activity assay in lysates of treated macrophages; assay type: cell-based, mouse
BMDM [4] = conditions: for recruitment of DRP1 to mitochondria / recruitment of p62 to mitochondria: metformin 0.5 mM
in vivo = conditions: male, C57BL/6, mouse, ip, 50 mg/kg
Method: (§1) Pooled mice plasma (CD-1 (ICR) MSE00PLK2, BioIVT) was selected as blank matrix for standards and quality control samples. Sample preparation procedure was adopted from literatures with minor modifications. […] The samples mix were vortexed for 2 minutes then sonicated for 1 min and centrifuged at 6100 g for 10 min. Supernatants were transferred into a new set 96-well plate, and 10 μL were injected for LC-MS/MS analysis. […] The solution was then serially diluted with 50% methanol-water to obtain standard working solutions over a concentration range of 10-2000 ng/ml. The quality control (QC) samples were prepared in three concentrations: 10, 100, and 500 ng/ml.
(§2) LC-MS/MS system was performed using an Agilent 1290 Infinity HPLC and HiP ALS (Autosampler) coupled with AB Sciex 6500 Q-Trap mass spectrometer. All data were acquired using Analyst (AB SCIEX v1.7.1). […] The mobile phase A was 20 mM ammonium acetate buffer in water and 100% acetonitrile as mobile phase B. A total 7 min gradient run with a flow rate of 0.8 ml/min was implemented. […] The mass spectrometer was operated in a positive mode using scheduled multiple reaction morning (sMRM).

[5] = LC-MS/MS metformin concentration in plasma; conditions: 24 hrs after LPS challenge, oral and i.p.
Method: as §1, §2

CN(C)C(=N)NC(=N)N [metformin, N,N-dimethylbiguanide]
Casp1 p20 and IL-1β secretion (NLRP3 inflammasome [1]): abrogated
Casp1 p20 and IL-1β secretion (NLRP3 inflammasome [2]): abrogated
ATP or nigericin induced decrease of mitochondrial membrane potential and increase of mtROS (BMDM [3]; LPS-primed BMDM, metformin 0.5 mM 16 h): blunted both responses
drop in ATP concentration (BMDM [3]; LPS-primed versus non-stimulated macrophages): larger drop
mitochondrial membrane potential (BMDM [3]; non-stimulated macrophages, metformin alone): decreased
POLγ activity (POLγ; lysates of LPS-stimulated macrophages, assay mix lacking exogenous ATP): decreased
effect of AMPKα1 deficiency on POLγ expression or activity (POLγ; lysates of metformin treated LPS stimulated BMDM): no effect
POLγ activity (POLγ; lysates of metformin treated LPS-stimulated macrophages, addition of ATP at 10 mM): fully restored
expression of CMPK2 (BMDM [4]; BMDM, LPS 4 hrs, metformin 0.5 mM 16 hrs): no effect
POLγ expression (BMDM [4]; BMDM, metformin): no effect
AMPK phosphorylation (BMDM [4]; BMDM, metformin 0.5 mM 16 h): increased
p38 or JNK MAP kinase activation (BMDM [4]; BMDM, metformin 0.5 mM 16 hrs, LPS 30 min): blunted
nuclear translocation of NFAT family members and c/EBPb (BMDM [4]; BMDM, metformin 0.5 mM 16 hrs, LPS 4 hrs): decreased
LPS-induced p65/RelA nuclear translocation or phosphorylation (BMDM [4]; BMDM, metformin 0.5 mM overnight, LPS): did not interfere
STAT1 or STAT3 phosphorylation (BMDM [4]; BMDM, metformin pretreatment, LPS): did not inhibit
recruitment of DRP1 to mitochondria (BMDM [4]; LPS primed cells): enhancing it
recruitment of DRP1 to mitochondria (BMDM [4]; LPS+ATP challenged macrophages): not affecting it
recruitment of p62 to mitochondria (BMDM [4]; LPS-primed cells not ATP exposed): enhanced
recruitment of p62 to mitochondria (BMDM [4]; after LPS+ATP stimulation): did not affect
concentration at 1 hr (in vivo): 440 ± 389 ng/mL
circulating concentrations [5]: equally low

From US12642780B2, “Methods and compositions to treat and prevent viral infections and acute respiratory distress syndrome” (priority 2020, dated 2026)
